Laboratory results as given in PubChem BioAssay AID2060337 (Molecular Pharmacology Branch, DTP, NCI, 2025).
“And” between values parts separate entries of the source, which are not always exact repeats. Identical values can stand only once. Values belong to the compound of their own block, whether it stands above or below them.

System: 832693-133-R-J1-PDC multi-cell spheroids, viability
Assay: Anticancer human tumor 832693-133-R-J1-PDC patient-derived head and neck squamous carcinoma cell line growth inhibition [IpAb]
Details: for viability, T/C: stronger effect = lower value
Method in brief: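 Multi-cell spheroids of 60% tumour cells, 25% HUVEC and 15% MSC in ultra-low-attachment U-bottom wells, treated with agents combined with ipatasertib or abemaciclib. Half-log ranges top out near clinical Cmax, or 10 microM when Cmax is unknown.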

[1] = curve of first compound, second compound 0.1 µM
[2] = curve of first compound, second compound 0.316 µM
[3] = curve of first compound, second compound 1 µM
[4] = curve of first compound, second compound 3.16 µM
[5] = curve of first compound, second compound 10 µM
[6] = second compound 0.1 µM, first compound 0.00316 µM
[7] = second compound 0.1 µM, first compound 0.01 µM
[8] = second compound 0.1 µM, first compound 0.0316 µM
[9] = second compound 0.1 µM, first compound 0.1 µM
[10] = second compound 0.316 µM, first compound 0.00316 µM
[11] = second compound 0.316 µM, first compound 0.01 µM
[12] = second compound 0.316 µM, first compound 0.0316 µM
[13] = second compound 0.316 µM, first compound 0.1 µM
[14] = second compound 1 µM, first compound 0.00316 µM
[15] = second compound 1 µM, first compound 0.01 µM
[16] = second compound 1 µM, first compound 0.0316 µM
[17] = second compound 1 µM, first compound 0.1 µM
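Also: spheroids exposed to the drugs for one week before the viability readout.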
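For viability, T/C in this document: 100% = DMSO vehicle control wells.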

SMILES: CC(=O)c1c(C)c2cnc(Nc3ccc(N4CCNCC4)cn3)nc2n(C2CCCC2)c1=O + CC(C)NCC(C(=O)N1CCN(c2ncnc3c2C(C)CC3O)CC1)c1ccc(Cl)cc1
IC50 [1]: 69 nM
IC50 [2]: 11.7 nM
IC50 [3]: 2.65 nM
IC50 [4]: 1.68 nM
IC50 [5]: 2.82 nM
viability, T/C (second compound 0.1 µM, first compound 0.000949 µM): 90.5%
viability, T/C (second compound 0.1 µM, first compound 0.003 µM): 75%
viability, T/C (second compound 0.1 µM, first compound 0.00949 µM): 66.7%
viability, T/C (second compound 0.1 µM, first compound 0.03 µM): 53.4%
viability, T/C (second compound 0.1 µM, first compound 0.0949 µM): 47.8%
viability, T/C (second compound 0.1 µM, first compound 0.3 µM): 44.7%
viability, T/C (second compound 0.316 µM, first compound 0.000949 µM): 64.8%
viability, T/C (second compound 0.316 µM, first compound 0.003 µM): 62.6%
viability, T/C (second compound 0.316 µM, first compound 0.00949 µM): 51.2%
viability, T/C (second compound 0.316 µM, first compound 0.03 µM): 41.5%
viability, T/C (second compound 0.316 µM, first compound 0.0949 µM): 31.4%
viability, T/C (second compound 0.316 µM, first compound 0.3 µM): 34.1%
viability, T/C (second compound 1 µM, first compound 0.000949 µM): 56.9%
viability, T/C (second compound 1 µM, first compound 0.003 µM): 49.6%
viability, T/C (second compound 1 µM, first compound 0.00949 µM): 36.6%
viability, T/C (second compound 1 µM, first compound 0.03 µM): 33.3%
viability, T/C (second compound 1 µM, first compound 0.0949 µM): 27.8%
viability, T/C (second compound 1 µM, first compound 0.3 µM): 29.6%
viability, T/C (second compound 3.16 µM, first compound 0.000949 µM): 56.2%
viability, T/C (second compound 3.16 µM, first compound 0.003 µM): 45.1%
viability, T/C (second compound 3.16 µM, first compound 0.00949 µM): 31.6%
viability, T/C (second compound 3.16 µM, first compound 0.03 µM): 34.4%
viability, T/C (second compound 3.16 µM, first compound 0.0949 µM): 23.5%
viability, T/C (second compound 3.16 µM, first compound 0.3 µM): 20.8%
viability, T/C (second compound 10 µM, first compound 0.000949 µM): 61%
viability, T/C (second compound 10 µM, first compound 0.003 µM): 50.5%
viability, T/C (second compound 10 µM, first compound 0.00949 µM): 37.8%
viability, T/C (second compound 10 µM, first compound 0.03 µM): 30.5%
viability, T/C (second compound 10 µM, first compound 0.0949 µM): 26.9%
viability, T/C (second compound 10 µM, first compound 0.3 µM): 21%

SMILES: Cn1ncnc1[C@H]1c2n[nH]c(=O)c3cc(F)cc(c23)N[C@@H]1c1ccc(F)cc1 + CCN1CCN(Cc2ccc(Nc3ncc(F)c(-c4cc(F)c5nc(C)n(C(C)C)c5c4)n3)nc2)CC1
IC50 (curve of first compound, second compound 0.01 µM): > 100 nM
IC50 (curve of first compound, second compound 0.0316 µM): > 100 nM
IC50 [1]: > 100 nM
IC50 [2]: > 100 nM
IC50 [3]: > 100 nM
viability, T/C (second compound 0.01 µM, first compound 0.000316 µM): 101%
viability, T/C (second compound 0.01 µM, first compound 0.001 µM): 109%
viability, T/C (second compound 0.01 µM, first compound 0.00316 µM): 93.2%
viability, T/C (second compound 0.01 µM, first compound 0.01 µM): 91.9%
viability, T/C (second compound 0.01 µM, first compound 0.0316 µM): 94.7%
viability, T/C (second compound 0.01 µM, first compound 0.1 µM): 77.3%
viability, T/C (second compound 0.0316 µM, first compound 0.000316 µM): 90.5%
viability, T/C (second compound 0.0316 µM, first compound 0.001 µM): 86.1%
viability, T/C (second compound 0.0316 µM, first compound 0.00316 µM): 73.8%
viability, T/C (second compound 0.0316 µM, first compound 0.01 µM): 74.6%
viability, T/C (second compound 0.0316 µM, first compound 0.0316 µM): 76%
viability, T/C (second compound 0.0316 µM, first compound 0.1 µM): 69.5%
viability, T/C (second compound 0.1 µM, first compound 0.000316 µM): 60.1%
viability, T/C (second compound 0.1 µM, first compound 0.001 µM): 58%
viability, T/C [6]: 61%
viability, T/C [7]: 70.5%
viability, T/C [8]: 63%
viability, T/C [9]: 63.2%
viability, T/C (second compound 0.316 µM, first compound 0.000316 µM): 59.1%
viability, T/C (second compound 0.316 µM, first compound 0.001 µM): 53.6%
viability, T/C [10]: 60.5%
viability, T/C [11]: 56.5%
viability, T/C [12]: 60.8%
viability, T/C [13]: 56.3%
viability, T/C (second compound 1 µM, first compound 0.000316 µM): 63.6%
viability, T/C (second compound 1 µM, first compound 0.001 µM): 56.2%
viability, T/C [14]: 60.6%
viability, T/C [15]: 63.5%
viability, T/C [16]: 65.2%
viability, T/C [17]: 48.2%

SMILES: CCN1CCN(Cc2ccc(Nc3ncc(F)c(-c4cc(F)c5nc(C)n(C(C)C)c5c4)n3)nc2)CC1
viability, T/C (compound 0.01 µM): 97.5% [middle of 13 runs]
viability, T/C (compound 0.0316 µM): 82.1% [middle of 13 runs]
viability, T/C (compound 0.1 µM): 63.8% [middle of 13 runs]
viability, T/C (compound 0.316 µM): 57.4% [middle of 13 runs]
viability, T/C (compound 1 µM): 59.1% [middle of 13 runs]

SMILES: COc1c(OCCCN2CCOCC2)ccc2c3n(c(=NC(=O)c4cnc(N)nc4)nc12)CCN3 + CC(C)NCC(C(=O)N1CCN(c2ncnc3c2C(C)CC3O)CC1)c1ccc(Cl)cc1
IC50 [1]: 15.4 nM
IC50 [2]: 5.27 nM
IC50 [3]: < 3.16 nM
IC50 [4]: < 3.16 nM
IC50 [5]: < 3.16 nM
viability, T/C [6]: 83.1%
viability, T/C [7]: 63.4%
viability, T/C [8]: 27.4%
viability, T/C [9]: 7.23%
viability, T/C (second compound 0.1 µM, first compound 0.316 µM): 4.92%
viability, T/C (second compound 0.1 µM, first compound 1 µM): 4.02%
viability, T/C [10]: 59.6%
viability, T/C [11]: 37.7%
viability, T/C [12]: 19.2%
viability, T/C [13]: 7.29%
viability, T/C (second compound 0.316 µM, first compound 0.316 µM): 3.93%
viability, T/C (second compound 0.316 µM, first compound 1 µM): 3.87%
viability, T/C [14]: 43.2%
viability, T/C [15]: 20.6%
viability, T/C [16]: 12.7%
viability, T/C [17]: 6.94%
viability, T/C (second compound 1 µM, first compound 0.316 µM): 4.52%
viability, T/C (second compound 1 µM, first compound 1 µM): 3.27%
viability, T/C (second compound 3.16 µM, first compound 0.00316 µM): 30.5%
viability, T/C (second compound 3.16 µM, first compound 0.01 µM): 18.4%
viability, T/C (second compound 3.16 µM, first compound 0.0316 µM): 11.2%
viability, T/C (second compound 3.16 µM, first compound 0.1 µM): 7.39%
viability, T/C (second compound 3.16 µM, first compound 0.316 µM): 5.57%
viability, T/C (second compound 3.16 µM, first compound 1 µM): 4.86%
viability, T/C (second compound 10 µM, first compound 0.00316 µM): 32.8%
viability, T/C (second compound 10 µM, first compound 0.01 µM): 22.8%
viability, T/C (second compound 10 µM, first compound 0.0316 µM): 14.2%
viability, T/C (second compound 10 µM, first compound 0.1 µM): 7.94%
viability, T/C (second compound 10 µM, first compound 0.316 µM): 5.9%
viability, T/C (second compound 10 µM, first compound 1 µM): 5.91%

IC50 (curve of compound): > 100 nM
SMILES: CC(C)n1nc(-c2ccc3oc(N)nc3c2)c2c(N)ncnc21
viability, T/C (compound 0.000316 µM): 94.6% and 91.2%
viability, T/C (compound 0.001 µM): 89.4% and 88.7%
viability, T/C (compound 0.00316 µM): 86.9% and 76%
viability, T/C (compound 0.01 µM): 76.9% and 68.7%
viability, T/C (compound 0.0316 µM): 67.5% and 60.2%
viability, T/C (compound 0.1 µM): 61.8% and 52.7%

IC50 (curve of compound): 599 nM and 533 nM
SMILES: Cc1nc(NC(=O)N2CCCC2C(N)=O)sc1-c1ccnc(C(C)(C)C(F)(F)F)c1 (centres undefined)
viability, T/C (compound 0.0316 µM): 93.3% and 84.1%
viability, T/C (compound 0.1 µM): 80.6% and 87.4%
viability, T/C (compound 0.316 µM): 66.7% and 55.5%
viability, T/C (compound 1 µM): 36.9% and 39.1%
viability, T/C (compound 3.16 µM): 17.8% and 12.8%
viability, T/C (compound 10 µM): 4.84% and 2.57%
